The source of these data is US5352815A, “Agent for suppression and interception of mailard reaction” (Asai Germanium Research Institute Co., Ltd., priority 1992, dated 1994).

Each structure is given as a SMILES string.

Series [1] in a line: Example 2: AGE formation from F-lysine (model glycosylated protein; absorbance at 420 nm) and F-lysine decomposition (HPLC). The class given is biochemical. The method, then: The organogermanium compound (1-1) was added to a phosphate buffer solution containing 10 mM of Nα-t-butoxycarbonyl-Nε-fructose-L-lysine(hereinafter abbreviated to F-lysine) as a model glycosylated protein, so that the final concentration became 0, 1, 5, 10 or 50 mM. Then, incubation was conducted at 40° C. for 15 days, after which the formation of AGE was measured by browning degree (absorbance at 420 nm) and the amount of F-lysine decomposed was measured by HPLC to examine the effect of the organogermanium compound (1-1) added.

The subject of series [2] is proteins in plasma. The experiment in a line: Example 4: glycation of plasma proteins in Streptozocin-diabetic rats. The note with it: 100 mg per kg, oral in drinking water. The class given is in vivo, Sprague-Dawley female rats. As to the method: (§1) Streptozocin was intravenously injected into Sprague-Dawley female rats (total 21 rats each weighing 240-270 g) in an amount of 65 mg per kg of body weight to cause diabetes. Then, the rats were divided into two groups, i.e. a control group and an administered group. An organogermanium compound (1-1) was put into drinking water and orally administered to the administered group at night in an amount of 100 mg per kg of body weight.
4, 8 and 14 weeks after the administration of the organogermanium compound (1-1), blood sampling was made from all the rats of the two groups in hungry state. Each blood taken was measured for blood sugar, glucohemoglobin (hereinafter abbreviated to GHb), glycated albumin (hereinafter abbreviated to GA) and Fructosamine (hereinafter abbreviated to Fru). GHb was measured by affinity chromatography using a mini column, and GA was measured by HPLC using two different columns. The body weight, amount of water taken and amount of food taken, of each rat were also recorded simultaneously.

Series [3] in a line: Example 3: decomposition of Amadori rearrangement product formed from ribose and alginine (HPLC). Format: biochemical. The note with it: 40 mM solution mixed 1:1; 37° C., 24 hours, pH 7.4 (FIG. 6). The method, then: 20 mg of ribose, 20 mg of alginine and 10 ml of methanol were reacted under refluxing, in a hot bath of 60°-70° C. 10-15 minutes later, 0.1-0.3 ml of acetic acid was added and the reaction was continued for a further 5-10 minutes. Then, the reaction mixture was concentrated under reduced pressure. During the concentration, a small amount of water was added to remove acetic acid. The concentrate was dissolved in 1 ml of water and the solution was subjected to HPLC to collect an Amadori rearrangement product. The product was freeze-dried.
The freeze-dried product of the Amadori rearrangement product was suspended in 4 ml of a sodium phosphate buffer solution (pH 7.4, 0.1M). The suspension was mixed with a sodium phosphate buffer solution containing or not containing 40 mM of the organogermanium compound (1-1), at a 1:1 ratio. The mixture was incubated at 37° C. for 24 hours. Sampling of 0.1 ml was conducted with the lapse of time for immediate analysis by HPLC. When immediate analysis was impossible, the sample was freeze-storedat -20° C.

Series [4] has as its system rats. The series is described as follows: Acute oral toxicity in rats (LD50). The class given is in vivo. The following applies: oral administration. From the text: (§2) The organogermanium compound (1) used in the present agent has very low toxicity. In the case of oral administration of the compound (1-1), the LD50 is 6 g or more for mice and 10 g or more for rats.
For series [5], the system named is tail tendon collagen. The experiment in a line: Example 5: fluorescence of tail tendon collagen in Streptozocin-diabetic rats. The class given is in vivo, Sprague-Dawley female rats. The following applies: 100 mg per kg, oral in drinking water; 14 weeks. The method, then:
as §1
(§3) 14 weeks after the administration of the organogermanium compound (1-1), all the rats were killed to collect the skin of abdomen and the tendon of tail. Collagen was extracted from each skin and each tendon and treated with collagenase for solubilization. Each of the solubilized collagens was measured for fluorescence at an excitation wavelength of 370 nm and an absorption wave length of 440 nm. At the same time, hydroxyproline was measured by HPLC; a collagen amount was calculated; and the adjustment of fluorescent intensity was made using the value.

A short description of series [6]: Example 1: Mailard reaction of Nα-t-Boc-lysine (model protein) with glucose; AGE formation (absorbance at 420 nm) and Nα-t-Boc-lysine consumption (HPLC). The class given is biochemical. The note with it: 40° C. The method, then: The organogermanium compound (1-1) was added to a phosphate buffer solution (50 mM, pH 7.4) containing 50 mM of Nα-t-butoxycarbonyl-L-lysine (hereinafter abbreviated to Nα-t-Boc-lysine) as a model protein and 1M of glucose, so that the final concentration became 0, 1, 5 or 10 mM. Then, incubation was conducted at 40° C. for 15 days, after which the formation of AGE was measured by browning degree (absorbance at 420 nm) and the amount of Nα-t-Boc-lysine consumed was measured by high-performance liquid chromatography (hereinafter abbreviated to HPLC) to examine the effect of the organogermanium compound (1-1) added.

The test system of series [7] is Fructosamine in serum. The series is described as follows: Example 6: serum Fructosamine in diabetes patients. The class given is in vivo, human (diabetes patients). The note with it: 750 mg/day for 2 months; 20 diabetes patients (FIG. 11). The method, then:
An organogermanium compound (1-1) was administered to 20 diabetes patients (they were diagnosed as diabetes by a 75-g grape sugar loading test) at a dose of 750 mg/day for 2 months. Fructosamine content in serum of each patient was measured before and after the administration.
Fructosamine content in serum was measured by an ordinary method, i.e. by adding a test sample or a reference (a standard Amadori rearrangement product) to a NTB solution, subjecting the mixture to incubation at 37° C., and measuring the developed color.

Series [8] has as its system abdomen skin collagen. The experiment in a line: Example 5: fluorescence of abdomen skin collagen in Streptozocin-diabetic rats. The following applies: 100 mg per kg, oral in drinking water; 14 weeks. Format: in vivo, Sprague-Dawley female rats. As to the method:
as §1, §3

Series [9] deals with mice. The series is described as follows: Acute oral toxicity in mice (LD50). Format: in vivo. The following applies: oral administration.
Source text: as §2

Series [10] in a line: Example 5: general observations in Streptozocin-diabetic rats (blood sugar, body weight, water, food). The following applies: 100 mg per kg, oral in drinking water; 4, 8 and 14 weeks; vs control group. Format: in vivo, Sprague-Dawley female rats. The method, then:
as §1
Incidentally, during the test period, i.e. 4, 8 and 14 weeks after the administration of the organogermanium compound (1-1), there was no difference in blood sugar in hungry state, body weight, amount of water taken and amount of food taken, between the two groups.

For `N=C(N)NN` [aminoguanidine, reference compound], the “effect in the test of Example 2 (AGE formation and F-lysine consumption)” value in series [1] (compared with compound (1-1), used in its place) was “substantially no effect”.

In the case of `O=C(O)C[CH2][Ge](=[O])[O][Ge](=[O])[CH2]CC(=O)O` [compound (1-1)], the “Fru (Fructosamine) vs control group” value in [2] (8 weeks (FIG. 8)) is recorded as “significantly lower in the administered group”. In addition, the “GA (glycated albumin) vs control group” value in series [2] (14 weeks) was “significantly lower in the administered group”. Besides, the “Fru (Fructosamine) difference vs control group” value in series [2] (14 weeks, compared with 8 weeks) is given as “the difference was more significant in 14 weeks”. For the same compound, the “body weight, amount of water taken and amount of food taken” value in series [2] (test period, vs control group) is reported as “no difference”; in series [10], “no difference”. For the same compound, the “GHb (glucohemoglobin)” value in [2] (vs control group) is recorded as “lower in the administered group”. Besides, the “blood sugar in hungry state” value in [2] (vs control group) and in series [10] was “no difference” throughout. Also, the “consumption of F-lysine (suppressed to)” value in series [1] (50 mM, 40° C., 15 days, HPLC (FIG. 4)) is on record as “about 20%”. In series [1] (5-50 mM, 40° C., 15 days, HPLC (FIG. 4)), the “consumption of F-lysine” value is “suppressed the consumption of F-lysine”. In addition, the “suppression of the formation of AGE” value in series [1] (5-50 mM, 40° C., 15 days, absorbance at 420 nm (FIG. 3)) is recorded as “suppressed the formation of AGE substantially completely”; in series [6] (5-10 mM, 15 days, pH 7.4, absorbance at 420 nm (FIG. 1)), “suppressed the formation substantially completely”. The “alginine increase and unidentified substance peak increase” value in series [3] is “substantially seen neither alginine increase nor unidentified substance peak increase”. Besides, in series [3], the “decrease of the Amadori rearrangement product” value is on record as “very mild”. Further, the LD50 in series [4] is reported as ≥ 10 g; in series [9] it was ≥ 6 g. Besides, the “fluorescence of tendon collagen vs control group” value in [5] is reported as “significantly lower”. Also, the “suppression of the formation of AGE, concentration dependence” value in series [6] (0, 1, 5 or 10 mM, 15 days (FIG. 1)) is listed as “suppressed the formation of AGE dependently upon the concentration”. For the same compound, in series [6] (10 mM, 15 days, HPLC (FIG. 2)), the “consumption of Nα-t-Boc-lysine (suppressed to)” value was “about 10%”. In [7], the “Fructosamine content in serum after vs before administration” value was “lower after the administration”. Further, in [8], the “fluorescence of skin collagen vs control group” value is reported as “significantly lower”.
